Results: US20180333382A1, “PHARMACEUTICAL COMPOSITIONS COMPRISING DGLA AND USE OF SAME” (DS Biopharma Limited, priority 2017, published 2018)
Where two headings read alike, the source gives them in different places.

Assay: Phase one study part 2: multiple dose (28 days) plasma PK of free and total DGLA
Assay type: in vivo, human
Conditions: for Tmax / half-life: human, plasma, oral; for half-life: read-out: t1/2, median, free DGLA, baseline-corrected plasma (converted); for free DGLA Peak Trough Fluctuation (PTF), mean: steady state Day 28 (0-24 hours)
Method: Multiple dose part two of the study comprised two cohorts (Cohorts five and six) of eight subjects each, who were administered multiple doses of study drug in the fasted state for 28 days. Subjects in Cohorts five and six received DS107G at 2000 or 4000 mg, respectively, or matching placebo once daily for 28 days. Cohort six was started after Cohort five's safety data were evaluated by the SMC. No interim analysis was planned. […]
In Part two of the study (Cohorts five and six), subjects were administered study drug (500-mg DS107G capsules or matching placebo capsules) once daily in the fasted state for 28 days. Subjects in Cohort five received study drug first and, if they tolerated the 2000-mg daily dose for the first 14 days, subjects in Cohort six were started on the 4000-mg daily dose for 28 days.
PK parameter was computed after correcting the dosed DGLA concentrations with baseline DGLA concentrations.

[1] = 4000 mg once daily, Day 28, 0 to 24 hours
[2] = 4000 mg once daily, Day 28, 0 to 168 hours
[3] = 4000 mg once daily, Day 28: 0 to 24 hours

## CCCCC/C=C\C/C=C\C/C=C\CCCCCCC(=O)O [DS107G, Dihomo gamma linolenic acid]
[1]
  AUC0-24, mean, free DGLA, baseline-corrected plasma: 16155.2 ng·h/mL
  AUC0-24/Dose, mean, free DGLA, baseline-corrected plasma: 4.04 h/kL
  AUC0-24/Dose, mean, total DGLA, baseline-corrected plasma: 465.14 h/kL
  AUC0-inf, mean, free DGLA, baseline-corrected plasma: 22926.3 ng·h/mL
  AUC0-inf/Dose, mean, free DGLA, baseline-corrected plasma: 5.73 h/kL
  AUC0-inf/Dose, mean, total DGLA, baseline-corrected plasma: 1194.91 h/kL
  CL/F, mean, free DGLA, baseline-corrected plasma: 0.1865 kL/h
  Cmax, mean, free DGLA, baseline-corrected plasma: 2873.2 ng/mL
  Cmax/Dose, mean, free DGLA, baseline-corrected plasma: 0.718 kL⁻¹
  Cmax/Dose, mean, total DGLA, baseline-corrected plasma: 22.717 kL⁻¹
  λz, mean, free DGLA, baseline-corrected plasma: 0.0596 h⁻¹
  λz, mean, total DGLA, baseline-corrected plasma: 0.0471 h⁻¹
[2]
  AUC0-24, mean, free DGLA, baseline-corrected plasma: 16155.2 ng·h/mL
  AUC0-24/Dose, mean, free DGLA, baseline-corrected plasma: 4.04 h/kL
  AUC0-24/Dose, mean, total DGLA, baseline-corrected plasma: 465.14 h/kL
  AUC0-inf, mean, free DGLA, baseline-corrected plasma: 43184.3 ng·h/mL
  AUC0-inf/Dose, mean, free DGLA, baseline-corrected plasma: 10.80 h/kL
  AUC0-inf/Dose, mean, total DGLA, baseline-corrected plasma: 1575.98 h/kL
  CL/F, mean, free DGLA, baseline-corrected plasma: 0.1266 kL/h
  Cmax, mean, free DGLA, baseline-corrected plasma: 2873.2 ng/mL
  Cmax/Dose, mean, free DGLA, baseline-corrected plasma: 0.718 kL⁻¹
  Cmax/Dose, mean, total DGLA, baseline-corrected plasma: 22.717 kL⁻¹
  λz, mean, free DGLA, baseline-corrected plasma: 0.0404 h⁻¹
  λz, mean, total DGLA, baseline-corrected plasma: 0.0194 h⁻¹
[3]
  % PTF (peak trough fluctuation), mean, free DGLA, steady-state baseline-corrected plasma: 431.97%
  % PTF (peak trough fluctuation), mean, total DGLA, steady-state baseline-corrected plasma: 44.90%
  AR(AUC) accumulation ratio, mean, free DGLA, steady-state baseline-corrected plasma: 1.561
  AR(AUC) accumulation ratio, mean, total DGLA, steady-state baseline-corrected plasma: 4.163
  AR(Cmax) accumulation ratio, mean, free DGLA, steady-state baseline-corrected plasma: 1.385
  AR(Cmax) accumulation ratio, mean, total DGLA, steady-state baseline-corrected plasma: 3.440
  CLss/F, mean, free DGLA, steady-state baseline-corrected plasma: 0.2858 kL/h
  CLss/F, mean, total DGLA, steady-state baseline-corrected plasma: 0.0025 kL/h
  Cavg, mean, free DGLA, steady-state baseline-corrected plasma: 673.1 ng/mL
  Cavg, mean, total DGLA, steady-state baseline-corrected plasma: 77523.9 ng/mL
  Cmin, mean, free DGLA, steady-state baseline-corrected plasma: 147.0 ng/mL
  Cmin, mean, total DGLA, steady-state baseline-corrected plasma: 59216.7 ng/mL
  Vzss/F, mean, free DGLA, steady-state baseline-corrected plasma: 5.7563 kL
  Vzss/F, mean, total DGLA, steady-state baseline-corrected plasma: 0.1047 kL
  tmin, median, free DGLA, steady-state baseline-corrected plasma: 8.00 h
  tmin, median, total DGLA, steady-state baseline-corrected plasma: 2.00 h
2000 and 4000 mg daily
  time to reach steady-state plasma concentrations, free and total DGLA: ~14 days
Day 1
  free DGLA mean baseline-corrected AUC0-24, 4000 mg vs 2000 mg dose: ~2.5 fold
  free DGLA mean baseline-corrected Cmax, 4000 mg vs 2000 mg dose: ~3 fold
  total DGLA mean baseline-corrected AUC0-24, 4000 mg vs 2000 mg dose: ~1.5 fold
  total DGLA mean baseline-corrected Cmax, 4000 mg vs 2000 mg dose: ~1.5 fold
Day 28
  free DGLA mean baseline-corrected AUC0-24, 4000 mg vs 2000 mg dose: ~1.7 fold
  free DGLA mean baseline-corrected Cmax, 4000 mg vs 2000 mg dose: ~1.4 fold
  total DGLA mean baseline-corrected AUC0-24, 4000 mg vs 2000 mg dose: ~1.4 fold
  total DGLA mean baseline-corrected Cmax, 4000 mg vs 2000 mg dose: ~1.2 fold
Days 1 and 28, 2000 and 4000 mg daily
  time of peak mean concentration of free DGLA after dosing: about 4 hours
Both sexes, both dose cohorts, Day 1 and Day 28, read-out: free DGLA median tmax
  Tmax: 4 to 5 h
2000 mg, 2000 mg once daily, Day 1, 0 to 24 hours
  half-life: 4.71 h
2000 mg, 2000 mg once daily, Day 1, 0 to 24 hours, read-out: tmax, median, free DGLA, baseline-corrected plasma
  Tmax: 4 h
2000 mg, 2000 mg once daily, Day 28, 0 to 24 hours
  half-life: 14 h
2000 mg, 2000 mg once daily, Day 28, 0 to 24 hours, read-out: tmax, median, free DGLA, baseline-corrected plasma
  Tmax: 4 h
2000 mg, 2000 mg once daily, Day 28, 0 to 168 hours
  half-life: 63.6 h
2000 mg, 2000 mg once daily, Day 28, 0 to 168 hours, read-out: tmax, median, free DGLA, baseline-corrected plasma
  Tmax: 4 h
4000 mg, 4000 mg once daily, Day 1, 0 to 24 hours
  half-life: 5.92 h
4000 mg, 4000 mg once daily, Day 1, 0 to 24 hours, read-out: tmax, median, free DGLA, baseline-corrected plasma
  Tmax: 5 h
4000 mg, 4000 mg once daily, Day 28, 0 to 24 hours
  half-life: 12.7 h
4000 mg, 4000 mg once daily, Day 28, 0 to 24 hours, read-out: tmax, median, free DGLA, baseline-corrected plasma
  Tmax: 4 h
4000 mg, 4000 mg once daily, Day 28, 0 to 168 hours
  half-life: 48.2 h
4000 mg, 4000 mg once daily, Day 28, 0 to 168 hours, read-out: tmax, median, free DGLA, baseline-corrected plasma
  Tmax: 4 h
In vivo
  increase of average concentration at steady state when dose doubled from 2000 to 4000 mg daily, free DGLA: 1.6 fold
  increase of average concentration at steady state when dose doubled from 2000 to 4000 mg daily, total DGLA: 1.2 fold
First value of both dose cohorts (2000 mg)
  free DGLA Peak Trough Fluctuation (PTF), mean: ~430%
Second value of both dose cohorts (4000 mg)
  free DGLA Peak Trough Fluctuation (PTF), mean: ~490%
